This note sets out measurements from ChEMBL document CHEMBL3751763, “Polyketide butenolide, diphenyl ether, and benzophenone derivatives from the fungus Aspergillus flavipes PJ03-11” (Bioorg Med Chem Lett, 2016).

A short description of the test: Inhibition of Saccharomyces cerevisiae alpha-Glucosidase using p-nitrophenyl-alpha-D-glucopyranoside as substrate assessed as formation of para-nitrophenol preincubated for 5 mins followed by addition of substrate measured after 15 mins by microplate reader analysis.
As for `COC(=O)c1cc(O)cc(OC)c1Oc1c(Cl)c(C)c(Cl)c(O)c1C(=O)O` [GEODIN HYDRATE], the IC50 is 0.091 µM.

For `COC(=O)c1cc(O)cc(OC)c1Oc1cc(C)cc(O)c1C(=O)O` [ASTERRIC ACID], the IC50 is over 2 µM.

In the case of `COC(=O)c1cc(O)cc(O)c1C(=O)c1c(O)c(Cl)c(C)c(Cl)c1O`, the IC50 is over 2 µM.

For `COc1cc(/C=C2\OC(=O)C(c3ccc(O)cc3)=C2O)cc(OC)c1O`, the IC50 is 0.079 µM.

As for `COC(=O)c1c(O)c(Cl)c(C)c(Cl)c1Oc1c(OC)cc(O)cc1C(=O)O`, the half-inhibitory concentration (IC50) was 1.48 µM.

For `COc1cc(/C=C2\OC(=O)C(c3ccc(O)cc3)=C2O)ccc1O`, the IC50 was 0.022 µM.

On to `COc1cc(O)cc(C(=O)O)c1Oc1cc(C)cc(O)c1C(=O)O`, for which the IC50 was over 2 µM.

On to `COC(=O)c1cc(O)cc(OC)c1Oc1cc(CO)cc(O)c1C(=O)O`, for which the IC50 was over 2 µM.

Turning to `O=C1O/C(=C\c2ccc(O)cc2)C(O)=C1c1ccc(O)cc1` [ASPULVINONE E], the half-maximal inhibitory concentration (IC50) amounted to 2.7 µM.

For `COC(=O)c1cc(O)cc(O)c1C(=O)c1c(O)cc(C)cc1O`, the IC50 stood at 0.199 µM.

In the case of `COC(=O)[C@]1(Cc2ccc(O)c(CC=C(C)C)c2)OC(=O)C(OC)=C1c1ccc(O)c(O)c1`, the concentration for half-maximal inhibition (IC50) amounted to 0.016 µM.

Take `COC(=O)c1cc(O)cc(OC)c1Oc1cc(C)c(Cl)c(O)c1C(=O)O`: the IC50 is over 2 µM.

Regarding `COC(=O)[C@]1(Cc2ccc(O)cc2)OC(=O)C(O)=C1c1ccc(O)cc1`, the IC50 worked out at 0.126 µM.

Take `O=c1c(O)c(-c2ccc(O)c(O)c2)oc2cc(O)cc(O)c12` [QUERCETIN]: the IC50 was 0.015 µM.

In the case of `COC(=O)c1cc(O)cc(OC)c1Oc1cc(C)c(Cl)c(O)c1C(=O)OC` [METHYL CHLOROASTERRATE], the IC50 was over 2 µM.

As for `COC(=O)c1cc(O)cc(OC)c1Oc1c(Cl)c(C)c(Cl)c(O)c1C(=O)OC` [METYL DICHLOROASTERRATE], the IC50 turned out to be 1.45 µM.

For `C[C@@H]1O[C@@H](O[C@@H]2[C@@H](O)[C@H](O)[C@H](O[C@H]3[C@H](O)[C@@H](O)C(O)O[C@@H]3CO)O[C@H]2CO)[C@@H](O)[C@H](O)[C@H]1N[C@H]1C=C(CO)[C@@H](O)[C@H](O)[C@H]1O` (some centres undefined), the IC50 was found to be 0.685 µM.

Turning to `COc1cc(O)cc(C(=O)O)c1C(=O)c1c(O)c(Cl)c(C)c(Cl)c1O`, the IC50 was found to be 0.042 µM.

With `COC(=O)[C@]1(Cc2ccccc2)OC(=O)C(O)=C1c1ccccc1`, the IC50 was 0.385 µM.
